Results taken from US7915270B2, “Oxazole ketones as modulators of fatty acid amide hydrolase” (The Scripps Research Institute, priority 2006, dated 2011).
pIC50, pKi: −log10 of the molar value.

The compounds below were run against T1, FAAH (Rattus norvegicus, UniProt P97612) (assay: Assay Method 1A: FAAH enzyme assay, 14C-oleamide hydrolysis, solubilized liver plasma membrane extract). Details: not given.
T1 sequence (P97612 1-579): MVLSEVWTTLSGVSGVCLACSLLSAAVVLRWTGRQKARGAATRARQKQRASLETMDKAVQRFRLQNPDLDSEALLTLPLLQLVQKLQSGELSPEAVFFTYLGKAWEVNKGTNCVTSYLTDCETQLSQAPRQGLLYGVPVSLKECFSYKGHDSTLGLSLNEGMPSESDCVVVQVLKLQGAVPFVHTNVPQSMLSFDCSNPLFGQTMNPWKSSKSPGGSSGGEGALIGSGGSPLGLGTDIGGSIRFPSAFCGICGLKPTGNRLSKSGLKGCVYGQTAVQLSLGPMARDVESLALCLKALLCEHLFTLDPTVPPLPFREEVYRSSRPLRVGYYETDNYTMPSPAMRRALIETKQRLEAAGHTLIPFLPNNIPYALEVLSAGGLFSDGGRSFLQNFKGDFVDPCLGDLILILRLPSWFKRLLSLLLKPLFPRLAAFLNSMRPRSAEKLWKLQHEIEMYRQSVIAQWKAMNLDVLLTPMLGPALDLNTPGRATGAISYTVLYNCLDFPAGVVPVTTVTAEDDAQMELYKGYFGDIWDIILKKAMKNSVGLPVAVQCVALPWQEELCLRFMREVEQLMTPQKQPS
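Throughout, for pKi: ki obtained by Dixon analysis, taking the x-intercept of inhibitor concentration versus reciprocal rate plots at fixed substrate level and correcting for substrate concentration relative to Km.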

Row | pKi | SMILES
1 | 8.70 | COc1ccnc(-c2cnc(C(=O)CCCCCCc3ccccc3)o2)c1 [Example 45, 1-(5-(4-Methoxypyridin-2-yl)oxazol-2-yl)-7-phenylheptan-1-one]
2 | 6.40 | COc1ccccc1-c1cnc(C(=O)CCCCCCc2ccccc2)o1 [Example 13, 1-(5-(2-Methoxyphenyl)oxazol-2-yl)-7-phenylheptan-1-one]
3 | 9.00 | COC(=O)c1ccnc(-c2cnc(C(=O)CCCCCCc3ccccc3)o2)c1 [Example 35, Methyl 2-(2-(7-phenylheptanoyl)oxazol-5-yl)isonicotinate]
4 | < 7.30 | O=C(CCCCCCc1ccccc1)c1ncc(-c2ncccc2C(=O)O)o1 [Example 40, 2-(2-(7-Phenylheptanoyl)oxazol-5-yl)nicotinic acid]
5 | 8.52 | O=C(CCCCCCc1ccccc1)c1ncc(-c2cc([N+](=O)[O-])ccn2)o1 [Example 48, 1-(5-(4-Nitropyridin-2-yl)oxazol-2-yl)-7-phenylheptan-1-one]
6 | 7.60 | Nc1ccnc(-c2cnc(C(=O)CCCCCCc3ccccc3)o2)c1 [Example 49, 1-(5-(4-Aminopyridin-2-yl)oxazol-2-yl)-7-phenylheptan-1-one]
7 | 8.30 | COc1cc(-c2cnc(C(=O)CCCCCCc3ccccc3)o2)nc(OC)n1 [Example 51, 1-(5-(2,6-Dimethoxypyrimidin-4-yl)oxazol-2-yl)-7-phenylheptan-1-one]
8 | 8.52 | Cc1cccc(-c2cnc(C(=O)CCCCCCc3ccccc3)o2)n1 [Example 41, 1-(5-(6-Methylpyridin-2-yl)oxazol-2-yl)-7-phenylheptan-1-one]
9 | 7.59 | COc1ncc(-c2cnc(C(=O)CCCCCCc3ccccc3)o2)c(OC)n1 [Example 53, 1-(5-(2,4-Dimethoxypyrimidin-5-yl)oxazol-2-yl)-7-phenylheptan-1-one]

Continued, compound first:

Row | SMILES | pKi
10 | N#Cc1ccnc(-c2cnc(C(=O)CCCCCCc3ccccc3)o2)c1 [Example 46, 2-(2-(7-Phenylheptanoyl)oxazol-5-yl)isonicotinonitrile] | 8.70
11 | Cc1ccnc(-c2cnc(C(=O)CCCCCCc3ccccc3)o2)c1 [Example 43, 1-(5-(4-Methylpyridin-2-yl)oxazol-2-yl)-7-phenylheptan-1-one] | 9.00
12 | Cc1cccnc1-c1cnc(C(=O)CCCCCCc2ccccc2)o1 [Example 44, 1-(5-(3-Methylpyridin-2-yl)oxazol-2-yl)-7-phenylheptan-1-one] | 7.82
13 | NS(=O)(=O)c1ccccc1-c1cnc(C(=O)CCCCCCc2ccccc2)o1 [Example 19, 2-(2-(7-Phenylheptanoyl)oxazol-5-yl)benzenesulfonamide] | 5.82
14 | Cc1ccc(-c2cnc(C(=O)CCCCCCc3ccccc3)o2)nc1 [Example 42, 1-(5-(5-Methylpyridin-2-yl)oxazol-2-yl)-7-phenylheptan-1-one] | 8.52
15 | O=C(CCCCCCc1ccccc1)c1ncc(-c2cc(C(F)(F)F)ccn2)o1 [Example 47, 7-Phenyl-1-(5-(4-(trifluoromethyl)pyridin-2-yl)oxazol-2-yl)heptan-1-one] | 8.40

What follows are compounds tested against T2, Rat FAAH (Rattus norvegicus, UniProt P97612) (assay: Assay Method 2: FAAH assay, 3H-anandamide hydrolysis in cell homogenate (SK-N-MC cells transfected with rat FAAH)). Details: 3H-AEA 80 nM, rt 1 h, pH 9.
T2 construct: expressed in transfected cells
T2 sequence (P97612 1-579): T1 sequence (P97612 1-579)
Assay type: biochemical
Procedure: A. Transfection of Cells with Rat FAAH
(§1) A 10-cm tissue culture dish with a confluent monolayer of SK—N-MC cells was split 2 days (d) prior to transfection. Using sterile technique, the media was removed and the cells were detached from the dish by the addition of trypsin. One fifth of the cells were then placed onto a new 10-cm dish. Cells were grown in a 37° C. incubator with 5% CO2 in Minimal Essential Media Eagle with 10% Fetal Bovine Serum. After 2 d, cells were approximately 80% confluent. These cells were removed from the dish with trypsin and pelleted in a clinical centrifuge. The pellet was re-suspended in 400 μL complete media and transferred to an electroporation cuvette with a 0.4 cm gap between the electrodes. Supercoiled rat FAAH cDNA (1 μg) was added to the cells and mixed. The voltage for the electroporation was set at 0.25 kV, and the capacitance was set at 960 μF. After electroporation, the cells were diluted into complete media (10 mL) and plated onto four 10-cm dishes. Because of the variability in the efficiency of electroporation, four different concentrations of cells were plated. The ratios used were 1:20, 1:10, and 1:5, with the remainder of the cells being added to the fourth dish. The cells were allowed to recover for 24 h before adding the selection media (complete media with 600 μg/mL G418). After 10 d, dishes were analyzed for surviving colonies of cells. Dishes with well-isolated colonies were used. Cells from individual colonies were isolated and tested.
The assay mixture consisted of 50 μL of the cell homogenate, 10 μL of the test compound, and 40 μL of anandamide [1-^3H-ethanolamine] (^3H-AEA, Perkin-Elmer, 10.3 Ci/mmol), which was added last, for a final tracer concentration of 80 nM. The reaction mixture was incubated at rt for 1 h. During the incubation, 96-well Multiscreen filter plates (catalog number MAFCNOB50; Millipore, Bedford, Mass., USA) were loaded with 25 μL of activated charcoal (Multiscreen column loader, catalog number MACL09625, Millipore) and washed once with 100 μL of MeOH. […] After the 1 h incubation, 60 μL of the reaction mixture were transferred to the charcoal plates, which were then assembled on top of the DYNEX plates using Centrifuge Alignment Frames (catalog number MACF09604, Millipore). The unbound labeled ethanolamine was centrifuged through to the bottom plate (5 min at 2000 rpm), which was preloaded with the scintillant, as described above. The plates were sealed and left at rt for 1 h before counting on a Hewlett Packard TopCount.

Row | pIC50 | SMILES
16 | 6.01 | Nc1ccc(-c2cnc(C(=O)CCCCCCc3ccccc3)o2)cc1 [Example 29, 1-(5-(4-Aminophenyl)oxazol-2-yl)-7-phenylheptan-1-one]
17 | 7.33 | O=C(CCCCCCc1ccccc1)c1ncc(-c2c[nH]c(=O)[nH]c2=O)o1 [Example 54, 5-(2-(7-Phenylheptanoyl)oxazol-5-yl)pyrimidine-2,4(1H,3H)-dione]
18 | 5.77 | O=C(CCCCCCc1ccccc1)c1ncc(-c2ccc(C(=O)C(F)(F)F)cc2)o1 [Example 6, 7-Phenyl-1-(5-(4-(2,2,2-trifluoroacetyl)phenyl)oxazol-2-yl)heptan-1-one]

More lines, now with the values behind:

Row | SMILES | pIC50
19 | N#Cc1cccc(-c2cnc(C(=O)CCCCCCc3ccccc3)o2)c1 [Example 17, 3-(2-(7-Phenylheptanoyl)oxazol-5-yl)benzonitrile] | 6.28
20 | NC(=O)c1cccc(-c2cnc(C(=O)CCCCCCc3ccccc3)o2)c1 [Example 8, 3-(2-(7-Phenylheptanoyl)oxazol-5-yl)benzamide] | 7.47
21 | O=C(CCCCCCc1ccccc1)c1ncc(-c2cccc(C(=O)C(F)(F)F)c2)o1 [Example 5, 7-Phenyl-1-(5-(3-(2,2,2-trifluoroacetyl)phenyl)oxazol-2-yl)heptan-1-one] | 6.30
22 | O=C(CCCCCCc1ccccc1)c1ncc(-c2cccc(O)c2)o1 [Example 31, 1-(5-(3-Hydroxyphenyl)oxazol-2-yl)-7-phenylheptan-1-one] | 6.24
23 | O=C(CCCCCCc1ccccc1)c1ncc(-c2ccc(F)cc2)o1 [Example 12, 1-(5-(4-Fluorophenyl)oxazol-2-yl)-7-phenylheptan-1-one] | 6.00
24 | COc1ccc(-c2cnc(C(=O)CCCCCCc3ccccc3)o2)cc1 [Example 15, 1-(5-(4-Methoxyphenyl)oxazol-2-yl)-7-phenylheptan-1-one] | 5.40

The compounds below were run against T3, FAAH (Homo sapiens, UniProt O00519) (assay: Assay Method 1B: FAAH assay, 3H-anandamide hydrolysis in cell homogenate (T84 or SK-N-MC cells transfected with human FAAH)). Details: 3H-AEA 80 nM, rt 1 h, pH 9.
T3 sequence (O00519 1-579): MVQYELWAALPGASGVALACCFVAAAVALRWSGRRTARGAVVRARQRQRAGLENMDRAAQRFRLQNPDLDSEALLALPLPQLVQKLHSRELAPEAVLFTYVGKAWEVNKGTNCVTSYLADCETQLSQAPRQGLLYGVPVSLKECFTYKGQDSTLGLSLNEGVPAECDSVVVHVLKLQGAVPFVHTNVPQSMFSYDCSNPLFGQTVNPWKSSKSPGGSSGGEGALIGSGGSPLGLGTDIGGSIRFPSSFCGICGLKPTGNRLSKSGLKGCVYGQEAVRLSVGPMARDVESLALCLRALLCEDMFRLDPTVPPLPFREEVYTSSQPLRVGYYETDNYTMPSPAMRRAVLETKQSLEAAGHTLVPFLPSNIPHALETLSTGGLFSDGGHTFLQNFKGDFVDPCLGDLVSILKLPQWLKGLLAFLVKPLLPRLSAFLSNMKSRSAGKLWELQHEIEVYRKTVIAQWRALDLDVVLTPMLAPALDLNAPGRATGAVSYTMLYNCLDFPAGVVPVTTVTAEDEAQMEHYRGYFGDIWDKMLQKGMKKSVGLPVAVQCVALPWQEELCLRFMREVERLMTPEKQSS
Assay type: biochemical
Parameters: expressed in transfected cells
Procedure: as §1, with “Transfection of Cells with Human FAAH A 10-cm” for “A 10-cm”, “electrodes. Supercoiled human FAAH cDNA” for “electrodes. Supercoiled rat FAAH cDNA”, “and tested. […] The reaction mixture was incubated at rt for 1 h. During the incubation, 96-well Multiscreen filter plates (catalog number MAFCNOB50; Millipore, Bedford, Mass., USA) were loaded with 25 μL of activated charcoal (Multiscreen column loader, catalog number MACL09625, Millipore) and washed once with 100 μL of MeOH. Also during the incubation, 96-well DYNEX MicroLite plates (catalog number NL510410) were loaded with 100 μL of MicroScint40 (catalog number 6013641, Packard Bioscience, Meriden, Conn., USA). After the 1 h incubation, 60 μL of the reaction mixture were transferred to the charcoal plates, which were then assembled on top of the DYNEX plates using Centrifuge Alignment Frames (catalog number MACF09604, Millipore). The unbound labeled ethanolamine was centrifuged through to the bottom plate (5 min at 2000 rpm), which was preloaded with the scintillant, as described above. The plates were sealed and left at rt for 1 h before counting on a Hewlett Packard TopCount.” for “and tested.”

Row | pIC50 | SMILES
25 | 5.72 | COc1ccccc1-c1cnc(C(=O)CCCCCCc2ccccc2)o1 [Example 13, 1-(5-(2-Methoxyphenyl)oxazol-2-yl)-7-phenylheptan-1-one]
26 | 6.55 | Nc1ccc(-c2cnc(C(=O)CCCCCCc3ccccc3)o2)cc1 [Example 29, 1-(5-(4-Aminophenyl)oxazol-2-yl)-7-phenylheptan-1-one]
27 | 5.10 | O=C(CCCCCCc1ccccc1)c1ncc(-c2c[nH]c(=O)[nH]c2=O)o1 [Example 54, 5-(2-(7-Phenylheptanoyl)oxazol-5-yl)pyrimidine-2,4(1H,3H)-dione]
28 | 6.59 | O=C(CCCCCCc1ccccc1)c1ncc(-c2ccc(C(=O)C(F)(F)F)cc2)o1 [Example 6, 7-Phenyl-1-(5-(4-(2,2,2-trifluoroacetyl)phenyl)oxazol-2-yl)heptan-1-one]

More lines, now with the values behind:

Row | SMILES | pIC50
29 | N#Cc1cccc(-c2cnc(C(=O)CCCCCCc3ccccc3)o2)c1 [Example 17, 3-(2-(7-Phenylheptanoyl)oxazol-5-yl)benzonitrile] | 8.05
30 | NC(=O)c1cccc(-c2cnc(C(=O)CCCCCCc3ccccc3)o2)c1 [Example 8, 3-(2-(7-Phenylheptanoyl)oxazol-5-yl)benzamide] | 7.92
31 | O=C(CCCCCCc1ccccc1)c1ncc(-c2cccc(C(=O)C(F)(F)F)c2)o1 [Example 5, 7-Phenyl-1-(5-(3-(2,2,2-trifluoroacetyl)phenyl)oxazol-2-yl)heptan-1-one] | 7.40
32 | O=C(CCCCCCc1ccccc1)c1ncc(-c2cccc(O)c2)o1 [Example 31, 1-(5-(3-Hydroxyphenyl)oxazol-2-yl)-7-phenylheptan-1-one] | 7.26
33 | O=C(CCCCCCc1ccccc1)c1ncc(-c2ccc(F)cc2)o1 [Example 12, 1-(5-(4-Fluorophenyl)oxazol-2-yl)-7-phenylheptan-1-one] | 7.00
34 | NS(=O)(=O)c1ccccc1-c1cnc(C(=O)CCCCCCc2ccccc2)o1 [Example 19, 2-(2-(7-Phenylheptanoyl)oxazol-5-yl)benzenesulfonamide] | 5.70
35 | COc1ccc(-c2cnc(C(=O)CCCCCCc3ccccc3)o2)cc1 [Example 15, 1-(5-(4-Methoxyphenyl)oxazol-2-yl)-7-phenylheptan-1-one] | 6.11
